According to patent US9533985B2, “Sulfonamide derivative and medicinal use thereof” (EA Pharma Co., Ltd., priority 2012, dated 2017):

Assays:
Format in all cases: cell-based
[1] = biological target: T1, α4β7 integrin (Homo sapiens (Human), UniProt P13612+P26010); test: MAdCAM-1/α4β7 integrin binding inhibitory activity evaluation test (RPMI-8866 cell adhesion to MAdCAM-1/Fc); settings: for Selectivity: IC50 in VCAM-1/α4β1 test divided by IC50 in MAdCAM-1/α4β7 test; for IC50: RPMI-8866 cells binding to recombinant mouse MAdCAM-1/Fc, no serum
T1 sequence (P13612 34-1032): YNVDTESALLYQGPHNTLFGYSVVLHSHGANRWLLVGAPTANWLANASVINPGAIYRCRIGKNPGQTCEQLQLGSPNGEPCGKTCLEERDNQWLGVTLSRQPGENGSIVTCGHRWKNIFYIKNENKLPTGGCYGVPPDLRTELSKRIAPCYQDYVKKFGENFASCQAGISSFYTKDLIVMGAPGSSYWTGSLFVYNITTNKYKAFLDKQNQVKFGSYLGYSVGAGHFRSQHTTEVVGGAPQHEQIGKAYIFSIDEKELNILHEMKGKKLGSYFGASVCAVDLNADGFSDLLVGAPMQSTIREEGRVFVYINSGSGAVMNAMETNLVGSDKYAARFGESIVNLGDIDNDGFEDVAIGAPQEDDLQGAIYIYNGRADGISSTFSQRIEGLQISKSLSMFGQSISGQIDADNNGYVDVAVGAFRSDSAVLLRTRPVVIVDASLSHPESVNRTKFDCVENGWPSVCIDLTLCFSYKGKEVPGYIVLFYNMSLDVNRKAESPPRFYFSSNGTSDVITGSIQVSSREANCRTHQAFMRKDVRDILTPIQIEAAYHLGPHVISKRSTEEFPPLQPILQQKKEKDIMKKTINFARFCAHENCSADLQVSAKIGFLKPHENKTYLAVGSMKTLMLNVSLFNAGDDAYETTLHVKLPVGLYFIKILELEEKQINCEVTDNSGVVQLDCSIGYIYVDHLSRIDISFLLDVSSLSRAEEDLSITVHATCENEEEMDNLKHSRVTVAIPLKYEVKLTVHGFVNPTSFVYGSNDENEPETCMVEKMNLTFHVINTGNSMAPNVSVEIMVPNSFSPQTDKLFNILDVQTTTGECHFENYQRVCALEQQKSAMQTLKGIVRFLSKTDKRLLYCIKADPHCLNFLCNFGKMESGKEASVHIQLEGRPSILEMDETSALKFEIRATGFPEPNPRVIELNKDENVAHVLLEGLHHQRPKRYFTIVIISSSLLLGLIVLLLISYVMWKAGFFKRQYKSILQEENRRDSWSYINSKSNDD
T1 sequence (P26010 20-798): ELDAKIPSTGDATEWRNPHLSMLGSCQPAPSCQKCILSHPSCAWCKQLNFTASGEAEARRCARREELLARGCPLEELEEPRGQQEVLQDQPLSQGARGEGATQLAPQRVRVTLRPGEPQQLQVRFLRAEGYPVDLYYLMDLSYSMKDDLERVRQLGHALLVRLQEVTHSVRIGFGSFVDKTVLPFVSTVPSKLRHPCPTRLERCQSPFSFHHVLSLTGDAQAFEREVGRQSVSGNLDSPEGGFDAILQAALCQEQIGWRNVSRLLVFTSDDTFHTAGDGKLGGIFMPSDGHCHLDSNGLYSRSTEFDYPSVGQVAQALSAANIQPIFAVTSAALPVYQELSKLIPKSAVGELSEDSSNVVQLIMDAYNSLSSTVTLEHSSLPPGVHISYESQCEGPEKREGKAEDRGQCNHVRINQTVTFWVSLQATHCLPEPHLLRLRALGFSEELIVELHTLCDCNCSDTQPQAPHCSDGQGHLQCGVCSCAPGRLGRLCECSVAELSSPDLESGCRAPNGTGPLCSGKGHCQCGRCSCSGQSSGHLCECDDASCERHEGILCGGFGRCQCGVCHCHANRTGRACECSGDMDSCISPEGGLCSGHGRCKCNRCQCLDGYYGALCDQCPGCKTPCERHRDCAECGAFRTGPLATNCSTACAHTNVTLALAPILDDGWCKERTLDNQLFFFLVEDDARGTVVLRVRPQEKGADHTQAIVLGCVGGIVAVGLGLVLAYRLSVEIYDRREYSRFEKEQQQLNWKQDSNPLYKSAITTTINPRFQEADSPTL
Method: The ability of test substances to inhibit the binding of a human B cell line, RPMI-8866, which is known to express α4β7 integrin, to MAdCAM-1 was measured. To 96-well microtiter plates, recombinant mouse MAdCAM-1/Fc (R&D systems) solution (0.75 μg/mL) diluted with buffer A (carbonate buffer solution, pH 9.6) was added at 50 μL/well, followed by incubation at 4° C. overnight. After washing once with PBS, Block Ace (Snow Brand Milk Products Company, Limited) was added at 150 μL/well, followed by incubation at room temperature for 2 hours. After removal, washing was conducted once with PBS. 100 μL of each test substance diluted with binding buffer (DMEM containing 40 mM HEPES, 0.2% BSA, and 4 mM MnCl2) to various concentrations and 100 μL of RPMI-8866 cells (2×10^6 cell/mL) were added to the plates coated with MAdCAM-1/Fc (5×10^5 cells/well), followed by incubation at 30° C. for 15 minutes to 60 minutes. After the cells were bound to each well, unbound cells were removed by washing with PBS. To the plates, buffer C (PBS containing 1.5% Triton X-100) was added at 50 μL/well to lyse the bound RPMI-8866 cells. To 30 μL of the cell lysate, 30 μL of Substrate Buffer (Promega, CytoTox 96 Non-Radioactive Cytotoxicity Assay) was added, and the reaction was allowed to proceed at room temperature in a dark place for 30 minutes. To each well, 30 μL of Stop Solution (Promega, CytoTox 96 Non-Radioactive Cytotoxicity Assay) was added, and the absorbance at 490 nm was measured by using a plate reader. Here, by the obtained absorbance, the activity of the lactate dehydrogenase (LDH) dissolved into the supernatant of each well was detected. In other words, the absorbance was proportional to the number of the RPMI-8866 cells bound to MAdCAM-1 and remaining on the plate. The test was duplicated. The binding ratios of the cells at various concentrations were determined, with the absorbance of a well containing no test substance taken as 100%. Then, the concentration IC50, at which 50% binding inhibition was achieved, was calculated. […] Note that the selectivity in the table was determined by dividing the IC50 value in VCAM-1/α4β1 Integrin Binding Inhibitory Activity Evaluation Test by the IC50 value in the MAdCAM-1/α4β7 integrin binding inhibitory activity evaluation test.

[2] = biological target: T1, α4β7 integrin; test: MAdCAM-1/α4β7 integrin binding inhibitory activity evaluation test in the presence of serum (1); settings: RPMI-8866 cells binding to mouse MAdCAM-1/Fc, human serum at final concentration of 50%; read-out: α4β7 with serum added, IC50
Method: The ability of test substances to inhibit the binding of a human B cell line, RPMI-8866, which is known to express α4β7 integrin, to MAdCAM-1 was measured. To 96-well microtiter plates, recombinant mouse MAdCAM-1/Fc (R&D systems) solution (1 μg/mL) diluted with buffer A (carbonate buffer, pH 9.6) was added at 50 μL/well, followed by incubation at 4° C. overnight. After washing once with PBS, Block Ace (Snow Brand Milk Products Company, Limited) was added at 150 μL/well, followed by incubation at room temperature for 2 hours. After removal, washing was conducted once with PBS. 100 μL of each test substance diluted with a binding buffer (DMEM containing 40 mM HEPES, 0.2% BSA, and 4 mM MnCl2) to various concentrations and 100 μL of RPMI-8866 cells (2×10^6 cell/mL) were added to plates coated with MAdCAM-1/Fc (5×10^5 cells/well) with human serum being contained at a final concentration of 50%, followed by incubation at 30° C. for 15 minutes to 60 minutes. After the cells were bound to each well, unbound cells were removed by washing with PBS. To the plates, buffer C (PBS containing 1.5% Triton X-100) was added at 50 μL/well to lyse the bound RPMI-8866 cells. To 30 μL of the cell lysate, 30 μL of Substrate Buffer (Promega, CytoTox 96 Non-Radioactive Cytotoxicity Assay) was added, and the reaction was allowed to proceed at room temperature in a dark place for 30 minutes. To each well, 30 μL of Stop Solution (Promega, CytoTox 96 Non-Radioactive Cytotoxicity Assay) was added, and the absorbance at 490 nm was measured by using a plate reader. Here, by the obtained absorbance, the activity of the lactate dehydrogenase (LDH) dissolved into the supernatant of each well was detected. In other words, the absorbance was proportional to the number of the RPMI-8866 cells bound to MAdCAM-1 and remaining on the plate. The test was duplicated. The binding ratios of the cells at various concentrations were determined, with the absorbance of a well containing no test substance taken as 100%. Then, the concentration IC50, at which 50% binding inhibition was achieved, was calculated.

[3] = biological target: α4β1 integrin (Homo sapiens (Human), UniProt P05556+P13612); test: VCAM-1/α4β1 integrin binding inhibitory activity evaluation test (Jurkat cell adhesion to VCAM-1/Fc); settings: Jurkat cells binding to recombinant human VCAM-1/Fc
Chain of α4β1 integrin (P13612 34-1032): as the sequence (P13612 34-1032) above
Chain of α4β1 integrin (P05556 21-798): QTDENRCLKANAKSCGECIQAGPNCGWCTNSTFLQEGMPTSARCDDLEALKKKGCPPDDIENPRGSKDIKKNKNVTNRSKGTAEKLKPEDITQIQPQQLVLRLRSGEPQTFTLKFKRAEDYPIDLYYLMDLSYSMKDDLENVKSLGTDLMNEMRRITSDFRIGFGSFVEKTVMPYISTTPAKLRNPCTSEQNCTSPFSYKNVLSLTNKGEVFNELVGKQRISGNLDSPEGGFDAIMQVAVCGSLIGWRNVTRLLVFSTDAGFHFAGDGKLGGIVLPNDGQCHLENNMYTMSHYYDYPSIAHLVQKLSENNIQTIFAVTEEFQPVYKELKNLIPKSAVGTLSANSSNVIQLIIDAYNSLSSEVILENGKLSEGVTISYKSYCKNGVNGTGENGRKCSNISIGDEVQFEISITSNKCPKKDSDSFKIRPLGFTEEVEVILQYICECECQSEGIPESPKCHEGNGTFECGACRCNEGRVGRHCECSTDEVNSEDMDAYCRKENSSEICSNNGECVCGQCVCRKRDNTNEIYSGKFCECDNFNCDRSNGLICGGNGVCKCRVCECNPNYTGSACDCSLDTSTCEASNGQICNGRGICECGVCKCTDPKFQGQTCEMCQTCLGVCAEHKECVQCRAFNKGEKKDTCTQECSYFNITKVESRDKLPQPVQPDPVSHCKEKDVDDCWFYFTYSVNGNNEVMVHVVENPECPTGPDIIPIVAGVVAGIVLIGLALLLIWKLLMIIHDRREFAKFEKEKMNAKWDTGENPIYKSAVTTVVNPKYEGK
Method: The ability of test substances to inhibit the binding of a human T-cell line, Jurkat, which is known to express α4β1 integrin, to VCAM-1 was measured. To 96-well microtiter plates, recombinant human VCAM-1/Fc (R&D systems) solution (1 μg/mL) diluted with buffer A (carbonate buffer, pH 9.6) was added at 50 μL/well, followed by incubation at 4° C. overnight. After washing once with PBS, Block Ace (Snow Brand Milk Products Company, Limited) was added at 150 μL/well, followed by incubation at room temperature for 2 hours. After removal, washing was conducted once with PBS. 100 μL of each test substance diluted with a binding buffer (DMEM containing 40 mM HEPES, 0.2% BSA, and 4 mM MnCl2) to various concentrations and 100 μL of the Jurkat cells (2×10^6 cell/mL) were added to the plates coated with VCAM-1/Fc (5×10^5 cells/well), followed by incubation at 30° C. for 15 minutes to 60 minutes. After the cells were bound to each well, unbound cells were removed by washing with PBS. To the plates, buffer C (PBS containing 1.5% Triton X-100) was added at 50 μL/well to lyse the bound Jurkat cells. To 30 μL of the cell lysate, 30 μL of Substrate Buffer (Promega, CytoTox 96 Non-Radioactive Cytotoxicity Assay) was added, and the reaction was allowed to proceed at room temperature in a dark place for 30 minutes. To each well, 30 μL of Stop Solution (Promega, CytoTox 96 Non-Radioactive Cytotoxicity Assay) was added, and the absorbance at 490 nm was measured by using a plate reader. Here, by the obtained absorbance, the activity of the lactate dehydrogenase (LDH) dissolved into the supernatant of each well was detected. In other words, the absorbance was proportional to the number of the Jurkat cells bound to VCAM-1 and remaining on the plate. The test was duplicated. The binding ratios of the cells at various concentrations were determined, with the absorbance of a well containing no test substances taken as 100%. Then, the concentration IC50, at which 50% binding inhibition was achieved, was calculated. […] Note that, among the compounds synthesized in the corresponding Examples, the compounds in the free form (Compounds A-1 to A-39) were used as the test compounds. Hereinafter, the same shall apply.

| SMILES | Selectivity [1] | IC50 [1] [µM] | IC50 [2] [µM] | IC50 [3] [µM] |
| --- | --- | --- | --- | --- |
| Cn1c(=O)n(-c2ccc(C[C@H](NC(=O)c3ccc(NS(=O)(=O)c4ccncc4)cc3F)C(=O)O)cc2)c(=O)c2ccncc21 [Example 39, N-{2-Fluoro-4-[(pyridin-4-yl-sulfonyl)amino]benzoyl}-4-(1-methyl-2,4-dioxo-1,4-dihydropyrido[3,4-d]pyrimidin-3(2H)-yl)-L-phenylalanine] | 170 | 0.00083 | 0.027 | 0.14 |
| Cn1ccc(=O)n(-c2ccc(C[C@H](NC(=O)c3c(F)cc(NS(=O)(=O)c4ccc(-c5ncccn5)cn4)cc3F)C(=O)O)cc2)c1=O [Example 40, N-(2,6-Difluoro-4-{[(5-pyrimidin-2-yl-pyridin-2-yl)sulfonyl]amino}benzoyl)-4-(3-methyl-2,6-dioxo-3,6-dihydropyrimidin-1(2H)-yl)-L-phenylalanine] | 290 | 0.00073 | 0.0087 | 0.21 |
| Cn1c(=O)n(-c2ccc(C[C@H](NC(=O)c3c(F)cc(NS(=O)(=O)c4ccc(-n5cccc5)cc4)cc3F)C(=O)O)cc2)c(=O)c2ccncc21 [Example 43, N-[2,6-Difluoro-4-({[4-(1H-pyrrol-1-yl)phenyl]sulfonyl}amino)benzoyl]-4-(1-methyl-2,4-dioxo-1,4-dihydropyrido[3,4-d]pyrimidin-3(2H)-yl)-L-phenylalanine] | 240 | 0.0009 | 0.012 | 0.22 |
| CCNC(=O)c1ccc(S(=O)(=O)Nc2cc(F)c(C(=O)N[C@@H](Cc3ccc(-n4c(=O)ccn(C)c4=O)cc3)C(=O)O)c(F)c2)cc1 [Example 44, N-{4-[({4-[(Ethylamino)carbonyl]phenyl}sulfonyl)amino]-2,6-difluorobenzoyl}-4-(3-methyl-2,6-dioxo-3,6-dihydropyrimidin-1(2H)-yl)-L-phenylalanine] | 260 | 0.00062 | 0.016 | 0.16 |
| Cn1ccc(=O)n(-c2ccc(C[C@H](NC(=O)c3c(F)cc(NS(=O)(=O)c4ccc(C(=O)NC5CC5)cc4)cc3F)C(=O)O)cc2)c1=O [Example 45, N-{4-[({4-[(Cyclopropylamino)carbonyl]phenyl}sulfonyl)amino]-2,6-difluorobenzoyl}-4-(3-methyl-2,6-dioxo-3,6-dihydropyrimidin-1(2H)-yl)-L-phenylalanine] | 520 | 0.00097 | 0.021 | 0.5 |
| COc1cc2c(=O)n(-c3ccc(C[C@H](NC(=O)c4c(F)cc(NS(=O)(=O)c5ccc(-c6ncccn6)cc5)cc4F)C(=O)O)cc3)c(=O)n(C)c2cn1 [Example 46, N-(2,6-Difluoro-4-{[(4-pyrimidin-2-yl-phenyl)sulfonyl]amino}benzoyl)-4-(6-methoxy-1-methyl-2,4-dioxo-1,4-dihydropyrido[3,4-d]pyrimidin-3(2H)-yl)-L-phenylalanine] | 180 | 0.0011 | 0.015 | 0.2 |
| CN(C)c1ccc2c(c1)c(=O)n(-c1ccc(C[C@H](NC(=O)c3c(F)cc(NS(=O)(=O)c4ccc(-n5cncn5)cc4)cc3F)C(=O)O)cc1)c(=O)n2C [Example 47, N-[2,6-Difluoro-4-({[4-(1H-1,2,4-triazol-1-yl)phenyl]sulfonyl}amino)benzoyl]-4-[6-(dimethylamino)-1-methyl-2,4-dioxo-1,4-dihydroquinazolin-3(2H)-yl]-L-phenylalanine] | 1100 | 0.00032 | 0.02 | 0.34 |

Now those with a lower IC50 [1], led by results:

| Selectivity [1] | IC50 [1] [µM] | IC50 [2] [µM] | IC50 [3] [µM] | SMILES |
| --- | --- | --- | --- | --- |
| 190 | 0.00027 | 0.0088 | 0.052 | Cn1c(=O)n(-c2ccc(C[C@H](NC(=O)c3c(F)cc(NS(=O)(=O)c4ccc(-c5ccncc5)nc4)cc3F)C(=O)O)cc2)c(=O)c2ccncc21 [Example 42, N-{4-[(2,4′-Bipyridin-5-yl-sulfonyl)amino]-2,6-difluorobenzoyl}-4-(1-methyl-2,4-dioxo-1,4-dihydropyrido[3,4-d]pyrimidin-3(2H)-yl)-L-phenylalanine] |
| 500 | 0.00026 | 0.0064 | 0.13 | Cn1c(=O)n(-c2ccc(C[C@H](NC(=O)c3c(F)cc(NS(=O)(=O)c4ccc(-c5ncccn5)cc4)cc3F)C(=O)O)cc2)c(=O)c2ccncc21 [Example 41, N-(2,6-Difluoro-4-{[(4-pyrimidin-2-yl-phenyl)sulfonyl]amino}benzoyl)-4-(1-methyl-2,4-dioxo-1,4-dihydropyrido[3,4-d]pyrimidin-3(2H)-yl)-L-phenylalanine] |
| 230 | 0.00024 | 0.014 | 0.054 | Cn1c(=O)n(-c2ccc(C[C@H](NC(=O)c3c(F)cc(NS(=O)(=O)c4ccc(-c5ncc[nH]5)cc4)cc3F)C(=O)O)cc2)c(=O)c2ccncc21 [Example 48, N-[2,6-Difluoro-4-({[4-(1H-imidazol-2-yl)phenyl]sulfonyl}amino)benzoyl]-4-(1-methyl-2,4-dioxo-1,4-dihydropyrido[3,4-d]pyrimidin-3(2H)-yl)-L-phenylalanine] |
